Experimental data from US9527885B2, “Hepatitis C virus inhibitors” (BRISTOL-MYERS SQUIBB COMPANY, priority 2011, dated 2016).

Legend:
[1] = test system: HCV genotype 1a (H77 strain) replicon in HUH-7 cells; test: HCV replicon luciferase reporter assay, genotype 1a; type: cell-based; conditions: Hepatitis C virus, Huh-7, 72 h, HCV genotype 1a replicon luciferase, 3 days incubation, class symbols, read-out: LE_1a (EC50, range)
Outline: (§1)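 Twenty-point, threefold compound titrations (0.5% DMSO) were incubated 3 days at 37 °C with 3.0×10^3 HUH-7 cells/well in 4% FCS. The cells stably carried luciferase replicons: genotype 1b Con1 (S1179I) or 1a H77 (NS3 P1496L, NS5A S2204I). Renilla signal was read after 2 h with 7.5 μM EnduRen, and EC50 was taken from a four-parameter logistic fit. Cytotoxicity (CC50) was measured by Cell Titer-Blue, 8 h.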

[2] = test system: HCV genotype 1b (Con1) replicon in HUH-7 cells; test: HCV replicon luciferase reporter assay, genotype 1b; type: cell-based; conditions: Hepatitis C virus, 72 h, HCV genotype 1b replicon luciferase, 3 days incubation, class symbols, read-out: LE_1b (EC50, range)
Outline: as §1

Row | Structure (SMILES) | EC50 [1] | EC50 [2]
1 | CCOc1cnc(O[C@@H]2C[C@H]3C(=O)N[C@]4(C(=O)NS(=O)(=O)C5(C)CC5)C[C@H]4/C=C\CC[C@@H](C)C[C@@H](CC)[C@H](NC(=O)OC(C)(C)C(F)(F)F)C(=O)N3C2)c2ccccc12 [Compound 4202, 1,1,1-trifluoro-2-methylpropan-2-yl (2R,6S,7R,9R,13aS,14aR,16aS,Z)-2-(4-ethoxyisoquinolin-1-yloxy)-7-ethyl-9-methyl-14a-(1-methylcyclopropylsulfonylcarbamoyl)-5,16-dioxo-1,2,3,5,6,7,8,9,10,11,13a,14,14a,15,16,16a-hexadecahydrocyclopropa[e]pyrrolo[1,2-a][1,4]diazacyclopentadecin-6-ylcarbamate] | < 5.46 nM | < 5.46 nM
2 | CC[C@@H]1C[C@H](C)CC/C=C\[C@@H]2C[C@@]2(C(=O)NS(=O)(=O)C2(C)CC2)NC(=O)[C@@H]2C[C@@H](Oc3nccc4cc(OC)ccc34)CN2C(=O)[C@H]1NC(=O)OC(C)(C)C [Compound 4203, tert-butyl (2R,6S,7R,9R,13aS,14aR,16aS,Z)-7-ethyl-2-(6-methoxyisoquinolin-1-yloxy)-9-methyl-14a-(1-methylcyclopropylsulfonylcarbamoyl)-5,16-dioxo-1,2,3,5,6,7,8,9,10,11,13a,14,14a,15,16,16a-hexadecahydrocyclopropa[e]pyrrolo[1,2-a][1,4]diazacyclopentadecin-6-ylcarbamate] | < 5.46 nM | < 5.46 nM
3 | COc1ccc(-c2nc(O[C@@H]3C[C@H]4C(=O)N[C@]5(C(=O)NS(=O)(=O)C6CC6)C[C@@H]5/C=C\CC[C@@H](C)C[C@@H](C)[C@H](NC(=O)OC(C)(C)C)C(=O)N4C3)c3ccc(OC)cc3n2)cc1 [Compound 5002, tert-butyl ((2R,6S,7R,9R,13aR,14aR,16aS,Z)-14a-((cyclopropylsulfonyl)carbamoyl)-2-((7-methoxy-2-(4-methoxyphenyl)quinazolin-4-yl)oxy)-7,9-dimethyl-5,16-dioxo-1,2,3,5,6,7,8,9,10,11,13a,14,14a,15,16,16a-hexadecahydrocyclopropa[e]pyrrolo[1,2-a][1,4]diazacyclopentadecin-6-yl)carbamate] | < 5.46 nM | < 5.46 nM
4 | [2H]C([2H])([2H])Oc1cnc(O[C@@H]2C[C@H]3C(=O)N[C@]4(C(=O)NS(=O)(=O)C5(C)CC5)C[C@H]4CCCC[C@H](C)C[C@@H](C)[C@H](NC(=O)OC(C)(C)C(F)(F)F)C(=O)N3C2)c2ccccc12 [Compound 5110, 1,1,1-trifluoro-2-methylpropan-2-yl ((2R,6S,7R,9S,13aR,14aR,16aS)-7,9-dimethyl-14a-(((1-methylcyclopropyl)sulfonyl)carbamoyl)-5,16-dioxo-2-((4-(trideuteromethoxy)isoquinolin-1-yl)oxy)octadecahydrocyclopropa[e]pyrrolo[1,2-a][1,4]diazacyclopentadecin-6-yl)carbamate] | 4.82 to 103 nM | < 5.46 nM
5 | CCOc1cnc(O[C@@H]2C[C@H]3C(=O)N[C@]4(C(=O)NS(=O)(=O)C5(C)CC5)C[C@H]4/C=C\CC[C@H](C)C[C@@H](C)[C@H](NC(=O)OC(C)(C)C(C)(F)F)C(=O)N3C2)c2ccccc12 [Compound 5112, 3,3-difluoro-2-methylbutan-2-yl ((2R,6S,7R,9S,13aS,14aR,16aS,Z)-2-((4-ethoxyisoquinolin-1-yl)oxy)-7,9-dimethyl-14a-(((1-methylcyclopropyl)sulfonyl)carbamoyl)-5,16-dioxo-1,2,3,5,6,7,8,9,10,11,13a,14,14a,15,16,16a-hexadecahydrocyclopropa[e]pyrrolo[1,2-a][1,4]diazacyclopentadecin-6-yl)carbamate] | 4.82 to 103 nM | 4.82 to 103 nM
6 | CCOc1cnc(O[C@@H]2C[C@H]3C(=O)N[C@]4(C(=O)NS(=O)(=O)C5(C)CC5)C[C@H]4/C=C\CC[C@@H](C)C[C@@H](C)[C@H](NC(=O)OC(C)(C)C(C)(F)F)C(=O)N3C2)c2ccccc12 [Compound 5113, 3,3-difluoro-2-methylbutan-2-yl ((2R,6S,7R,9R,13 aS,14aR,16aS,Z)-2-((4-ethoxyisoquinolin-1-yl)oxy)-7,9-dimethyl-14a-(((1-methylcyclopropyl)sulfonyl)carbamoyl)-5,16-dioxo-1,2,3,5,6,7,8,9,10,11,13a,14,14a,15,16,16a-hexadecahydrocyclopropa[e]pyrrolo[1,2-a][1,4]diazacyclopentadecin-6-yl)carbamate] | < 5.46 nM | < 5.46 nM
7 | C[C@@H]1CC/C=C\[C@@H]2C[C@@]2(C(=O)NS(=O)(=O)C2(C)CC2)NC(=O)[C@@H]2C[C@@H](Oc3nccc4c(N5CCOCC5)cccc34)CN2C(=O)[C@@H](NC(=O)OC(C)(C)C(F)(F)F)[C@H](C)C1 [Compound 5124, 1,1,1-trifluoro-2-methylpropan-2-yl ((2R,6S,7R,9R,13aS,14aR,16aS,Z)-7,9-dimethyl-14a-(((1-methylcyclopropyl)sulfonyl)carbamoyl)-2-((5-morpholinoisoquinolin-1-yl)oxy)-5,16-dioxo-1,2,3,5,6,7,8,9,10,11,13a,14,14a,15,16,16a-hexadecahydrocyclopropa[e]pyrrolo[1,2-a][1,4]diazacyclopentadecin-6-yl)carbamate] | < 5.46 nM | < 5.46 nM
8 | C[C@@H]1CC/C=C\[C@@H]2C[C@@]2(C(=O)NS(=O)(=O)C2(C)CC2)NC(=O)[C@@H]2C[C@@H](Oc3nccc4c(N5CCOCC5)cccc34)CN2C(=O)[C@@H](NC(=O)OC(C)(C)C(C)(F)F)[C@H](C)C1 [Compound 5126, 3,3-difluoro-2-methylbutan-2-yl ((2R,6S,7R,9R,13aS,14aR,16aS,Z)-7,9-dimethyl-14a-(((1-methylcyclopropyl)sulfonyl)carbamoyl)-2-((5-morpholinoisoquinolin-1-yl)oxy)-5,16-dioxo-1,2,3,5,6,7,8,9,10,11,13a,14,14a,15,16,16a-hexadecahydrocyclopropa[e]pyrrolo[1,2-a][1,4]diazacyclopentadecin-6-yl)carbamate] | < 5.46 nM | < 5.46 nM
9 | CCOc1ccc2c(O[C@@H]3C[C@H]4C(=O)N[C@]5(C(=O)NS(=O)(=O)C6CC6)C[C@H]5/C=C\CC[C@H](C)C[C@@H](C)[C@H](NC(=O)OC(C)(C)C(F)(F)F)C(=O)N4C3)nccc2c1 [Compound 5129, 1,1,1-trifluoro-2-methylpropan-2-yl ((2R,6S,7R,9S,13aS,14aR,16aS,Z)-14a-((cyclopropylsulfonyl)carbamoyl)-2-((6-ethoxyisoquinolin-1-yl)oxy)-7,9-dimethyl-5,16-dioxo-1,2,3,5,6,7,8,9,10,11,13a,14,14a,15,16,16a-hexadecahydrocyclopropa[e]pyrrolo[1,2-a][1,4]diazacyclopentadecin-6-yl)carbamate] | 4.82 to 103 nM | < 5.46 nM
10 | CCOc1ccc2c(O[C@@H]3C[C@H]4C(=O)N[C@]5(C(=O)NS(=O)(=O)C6CC6)C[C@H]5/C=C\CC[C@@H](C)C[C@@H](C)[C@H](NC(=O)OC(C)(C)C(F)(F)F)C(=O)N4C3)nccc2c1 [Compound 5130, 1,1,1-trifluoro-2-methylpropan-2-yl ((2R,6S,7R,9R,13aS,14aR,16aS,Z)-14a-((cyclopropylsulfonyl)carbamoyl)-2-((6-ethoxyisoquinolin-1-yl)oxy)-7,9-dimethyl-5,16-dioxo-1,2,3,5,6,7,8,9,10,11,13a,14,14a,15,16,16a-hexadecahydrocyclopropa[e]pyrrolo[1,2-a][1,4]diazacyclopentadecin-6-yl)carbamate] | < 5.46 nM | < 5.46 nM
11 | CCOc1ccc2c(O[C@@H]3C[C@H]4C(=O)N[C@]5(C(=O)NS(=O)(=O)C6CC6)C[C@H]5/C=C\CC[C@H](C)C[C@@H](C)[C@H](NC(=O)O[C@@H]5C[C@@H]6C[C@@H]6C5)C(=O)N4C3)nccc2c1 [Compound 5131, (1R,3r,5S)-bicyclo[3.1.0]hexan-3-yl ((2R,6S,7R,9S,13aS,14aR,16aS,Z)-14a-((cyclopropylsulfonyl)carbamoyl)-2-((6-ethoxyisoquinolin-1-yl)oxy)-7,9-dimethyl-5,16-dioxo-1,2,3,5,6,7,8,9,10,11,13a,14,14a,15,16,16a-hexadecahydrocyclopropa[e]pyrrolo[1,2-a][1,4]diazacyclopentadecin-6-yl)carbamate] | < 5.46 nM | < 5.46 nM
12 | CCOc1ccc2c(O[C@@H]3C[C@H]4C(=O)N[C@]5(C(=O)NS(=O)(=O)C6CC6)C[C@H]5/C=C\CC[C@@H](C)C[C@@H](C)[C@H](NC(=O)O[C@@H]5C[C@@H]6C[C@@H]6C5)C(=O)N4C3)nccc2c1 [Compound 5132, (1R,3r,5S)-bicyclo[3.1.0]hexan-3-yl ((2R,6S,7R,9R,13aS,14aR,16aS,Z)-14a-((cyclopropylsulfonyl)carbamoyl)-2-((6-ethoxyisoquinolin-1-yl)oxy)-7,9-dimethyl-5,16-dioxo-1,2,3,5,6,7,8,9,10,11,13a,14,14a,15,16,16a-hexadecahydrocyclopropa[e]pyrrolo[1,2-a][1,4]diazacyclopentadecin-6-yl)carbamate] | < 5.46 nM | < 5.46 nM
13 | CCOc1ccc2c(O[C@@H]3C[C@H]4C(=O)N[C@]5(C(=O)NS(=O)(=O)C6(C)CC6)C[C@H]5/C=C\CC[C@H](C)C[C@@H](C)[C@H](NC(=O)OC(C)(C)C(F)(F)F)C(=O)N4C3)nccc2c1 [Compound 5135, 1,1,1-trifluoro-2-methylpropan-2-yl ((2R,6S,7R,9S,13aS,14aR,16aS,Z)-2-((6-ethoxyisoquinolin-1-yl)oxy)-7,9-dimethyl-14a-(((1-methylcyclopropyl)sulfonyl)carbamoyl)-5,16-dioxo-1,2,3,5,6,7,8,9,10,11,13a,14,14a,15,16,16a-hexadecahydrocyclopropa[e]pyrrolo[1,2-a][1,4]diazacyclopentadecin-6-yl)carbamate] | 4.82 to 103 nM | < 5.46 nM
